Test: RP, Thermo Scientific Hypersil GOLD, 5 × 2.1 mm, 1.9 µm, 45 °C, 0.25 mL/min, estimated dead time 0.044 min; A: water + 0.1% formic acid, pH 3; B: 50% acetonitrile + 50% isopropanol + 0.1% formic acid, pH 3; gradient (min/%B) 0/5 0.5/5 5/50 5.5/95 6.5/95 10/5
Conditions: stereoisomer not certain

| Structure (SMILES) | LC retention time [min] |
| --- | --- |
| CCCCCCCCC=CCC=CCC=CCCCC(=O)OCC(O)COP(=O)([O-])OCC[N+](C)(C)C (stereo not given) [lysoPC(20:3)] | 6.8 |
| CCCCCCCCC=CCCCCCCCCOCC(O)COP(=O)([O-])OCC[N+](C)(C)C (stereo not given) [lysoPC(O-18:1)] | 7.1 |
| CCCCCC=CCC=CCC=CCC=CCC=CCCC(=O)OC(COC(=O)CCCCCCCCCCCCCCCCC)COP(=O)([O-])OCC[N+](C)(C)C (stereo not given) [PC(40:5)] | 7.4 |
| CCC=CCC=CCC=CCC=CCC=CCC=CCCC(=O)OCC(O)COP(=O)([O-])OCC[N+](C)(C)C (stereo not given) [lysoPC(22:6)] | 6.65 |
| CCCCCC=CCC=CCC=CCC=CCC=CCCC(=O)OC(COC(=O)CCCCCCCCCCCCCCC)COP(=O)([O-])OCC[N+](C)(C)C (stereo not given) [PC(38:5)] | 7.41 |
| CCCCCCCCC=CCCCCCCCC(=O)OCC(O)COP(=O)(O)OCCN (stereo not given) [lysoPE(18:1)] | 6.92 |
| CCCCCC=CCC=CCCCCCCCC(=O)OCC(O)COP(=O)([O-])OCC[N+](C)(C)C (stereo not given) [lysoPC(18:2)] | 6.72 |
| CCCCCCCCC=CCCCCCCCC(=O)OC(COC(=O)CCCCCCCCCCCCCCC)COP(=O)([O-])OCC[N+](C)(C)C (stereo not given) [PC(34:1)] | 7.23 |
| CCCCCCCCCCCCCCCCCC(=O)OCC(O)COP(=O)(O)OCCN (stereo not given) [lysoPE(18:0)] | 6.75 |
| CCCCCC=CCC=CCC=CCC=CCCCC(=O)OC(COC(=O)CCCCCC=CCCCCCCCC)COP(=O)([O-])OCC[N+](C)(C)C (stereo not given) [PC(36:5)] | 7.38 |
| CCCCCCCCC=CCCCCCCCC(=O)OCC(O)COP(=O)([O-])OCC[N+](C)(C)C (stereo not given) [lysoPC(18:1)] | 6.93 |
| CCCCCC=CCC=CCC=CCC=CCCCC(=O)OC(COC(=O)CCCCCCCCCCCCC)COP(=O)([O-])OCC[N+](C)(C)C (stereo not given) [PC(34:4)] | 6.97 |
| CCCCCC=CCC=CCC=CCC=CCCCC(=O)OC(COC(=O)CCCCCCCCCCCCCCC)COP(=O)(O)OCC[N+](C)(C)C (stereo not given) [PC(36:4)] | 7.43 |
| CCC=CCC=CCC=CCC=CCC=CCC=CCCC(=O)OC(COC(=O)CCCCCCCCCCCCCCC)COP(=O)([O-])OCC[N+](C)(C)C (stereo not given) [PC(38:6)] | 7.39 |
| CCC=CCC=CCC=CCC=CCC=CCCCC(=O)OCC(O)COP(=O)([O-])OCC[N+](C)(C)C (stereo not given) [lysoPC(20:5)] | 6.55 |
| CCCCCC=CCC=CCC=CCC=CCCCC(=O)OCC(O)COP(=O)(O)OCCN (stereo not given) [lysoPE(20:4)] | 6.69 |
| CCC=CCC=CCC=CCCCCCCCC(=O)OC(COC(=O)CCCCCCCCCCCCCCC)COP(=O)([O-])OCC[N+](C)(C)C (stereo not given) [PC(34:3)] | 7.4 |
| CCC=CCC=CCC=CCC=CCC=CCC=CCCC(=O)OC(COC(=O)CCCCCC=CCCCCCCCC)COP(=O)([O-])OCC[N+](C)(C)C (stereo not given) [PC(38:7)] | 7.37 |
| CCCCCCC=CCCCCCCCC(=O)OCC(O)COP(=O)([O-])OCC[N+](C)(C)C (stereo not given) [lysoPC(16:1)] | 6.67 |
| CCC=CCC=CCC=CCCCCCCCC(=O)OCC(O)COP(=O)([O-])OCC[N+](C)(C)C (stereo not given) [lysoPC(18:3)] | 6.59 |
| CCCCCC=CCC=CCC=CCC=CCCCCCC(=O)OC(COC(=O)CCCCCCCCCCCCCCC)COP(=O)([O-])OCC[N+](C)(C)C (stereo not given) [PC(38:4)] | 7.4 |
| CCCCCC=CCC=CCC=CCC=CCCCC(=O)OCC(O)COP(=O)([O-])OCC[N+](C)(C)C (stereo not given) [lysoPC(20:4)] | 6.69 |
| CCC=CCC=CCC=CCC=CCC=CCC=CCCC(=O)OC(COC(=O)CCCCCCCCCCCCCCCCC)COP(=O)([O-])OCC[N+](C)(C)C (stereo not given) [PC(40:6)] | 7.14 |
| CCCCCC=CCC=CCCCCCCCCCC(=O)OC(COC(=O)CCCCCCCCCCCCC)COP(=O)([O-])OCC[N+](C)(C)C (stereo not given) [PC(34:2)] | 6.89 |
| CCCCCCCCCCCCCC(=O)OCC(O)COP(=O)([O-])OCC[N+](C)(C)C (stereo not given) [lysoPC(14:0)] | 6.62 |
| CCCCCCCCCCCCCCCC(=O)OCC(O)COP(=O)([O-])OCC[N+](C)(C)C (stereo not given) [lysoPC(16:0)] | 6.89 |
| CCCCCC=CCC=CCC=CCC=CCCCCCC(=O)OCC(COP(=O)([O-])OCC[N+](C)(C)C)OC(=O)CCCCC=CCC=CCC=CCCCCC (stereo not given) [PC(40:7)] | 7.4 |
| CCCCCCCCCCCCCCCCOCC(O)COP(=O)([O-])OCC[N+](C)(C)C (stereo not given) [lysoPC(O-16:0)] | 7.08 |
| CCCCCC=CCC=CCC=CCCCCC(=O)OCC(COP(=O)([O-])OCC[N+](C)(C)C)OC(=O)CCCCCCCCCCCCCCCCCCC (stereo not given) [PC(38:3)] | 7.4 |
| CCCCCCCCCCCCCC=CC(O)C(COP(=O)([O-])OCC[N+](C)(C)C)NC(=O)CCCCCCCCCCCCCC (stereo not given) [SM(33:1)] | 6.69 |
